These results are taken from ChEMBL document CHEMBL1141636, “New ultra-short acting hypnotic: synthesis, biological evaluation, and metabolic profile of ethyl 8-oxo-5,6,7,8-tetrahydro-thiazolo[3,2-a][1,3]diazepin-3-carboxylate (HIE-124)” (Bioorg Med Chem Lett, 2008).

The subject of data set [1] is Mus musculus. The data set can be described thus: Hypnotic effect in mouse assessed as sleeping time at 65 mg/kg, ip. It is filed as functional. The note with it: route intraperitoneal.
Data set [2] deals with Mus musculus. The data set can be described thus: Hypnotic effect in mouse assessed as sleeping time at 50 mg/kg, iv by loss of righting reflex method. It is filed as functional.
The subject of data set [3] is Mus musculus. The data set can be described thus: Acute tolerance in mouse assessed as sleeping time at 200 mg/kg, ip 3 times day after 3 days. It is filed as ADME, organism-based. Details: dose 200 mg/kg, route intraperitoneal. The note with it: in vivo, 72 h.
Data set [4] deals with Mus musculus. The data set can be described thus: Potentiation of thiopental-induced hypnosis in mouse assessed as sleeping time at 100 mg/kg, iv by loss of righting reflex method. It is filed as functional.
Data set [5] has as its system Mus musculus. The data set is described as follows: Acute tolerance in mouse assessed as sleeping time at 200 mg/kg, ip. It is filed as ADME, organism-based. Also on record: dose 200 mg/kg, route intraperitoneal. Particulars: in vivo.
The test system of data set [6] is Mus musculus. The data set can be described thus: Potentiation of thiopental-induced hypnosis in mouse assessed as sleeping time at 50 mg/kg, iv by loss of righting reflex method. It is filed as functional.
For data set [7], the system named is Mus musculus. The data set is described as follows: Potentiation of thiopental-induced hypnosis in mouse assessed as sleeping time at 100 mg/kg, ip. It is filed as functional. Particulars: route intraperitoneal.
In data set [8] the test system is Mus musculus. The data set can be described thus: Hypnotic effect in mouse assessed as sleeping time at 200 mg/kg, ip. It is filed as functional. The note with it: route intraperitoneal.
Data set [9] relates to Mus musculus. The data set is described as follows: Potentiation of thiopental-induced hypnosis in mouse assessed as sleeping time at 200 mg/kg, ip. It is filed as functional. Particulars: route intraperitoneal.
In data set [10] the test system is Mus musculus. The data set can be described thus: Hypnotic effect in mouse assessed as sleeping time at 100 mg/kg, iv by loss of righting reflex method. It is filed as functional.
Data set [11] concerns Mus musculus. The data set can be described thus: Hypnotic effect in mouse assessed as sleeping time at 100 mg/kg, ip. It is filed as functional. Particulars: route intraperitoneal.

As for `CCCC(C)C1(CC)C(=O)[N-]C(=S)NC1=O.[Na+]` (configuration not stated) [THIOPENTAL SODIUM], the Time in the data set with Mus musculus [1] came to 15.2 min; in the data set on Mus musculus [2] it was 4.9 min.
Consider `CCOC(=O)C1=CSC2=NC(=O)CCCN12`, for which the Time in the data set with Mus musculus [3] worked out at 8.7 min; in the data set with Mus musculus [4], 25.7 min; in the data set with Mus musculus [5], 10.3 min; in the data set on Mus musculus [2] it was 0.75 min; in the data set with Mus musculus [6], 19.9 min; with Mus musculus [7], 49.2 min. The Time was 9.1 min in the data set on Mus musculus [8], 155.7 min with Mus musculus [9], 1.48 min with Mus musculus [10] and 2.4 min with Mus musculus [11].
